The values below come from US6043373A, “Heterocycle-fused thiazole derivatives” (Yungjin Pharmaceutical Co., Ltd., priority 1995, dated 2000).

The target in one experiment is T1, H^+ /K^+ ATPase (Oryctolagus cuniculus, UniProt P27112).
T1 construct: from tissue; host or cells: rabbit gastric mucosa, membrane vesicles (differential and Ficoll density gradient centrifugation)
Briefly: Inhibition of H^+ /K^+ ATPase (vesicles from gastric mucose membrane of rabbit). The settings on record: pH 7.4, 37° C., 30 minutes preincubation, 15 minutes incubation; read-out: Enzyme Inhibition (IC50). Type of experiment: biochemical. How it is done: Inhibition of H^+ /K^+ ATPase, a proton carrying enzyme, was measured by following the procedure of Saccomani et al. [Biochim. Biophy. Acta., 465, 311-330 (1977)]. Thus, a homogenate of the gastric mucose membrane of rabbit was used to prepare vesicles containing H^+ /K^+ ATPase by employing differential centrifugation and discontinuous density gradient centrifugation in Ficoll. The vesicles containing the enzyme were preincubated in a solution (0.5 ml) containing 1×10^-4 M, 1×10^-5 M, 1×10^-6 M, or 1×10^-7 M of the inventive compound (Example 21) and 5 mM of imidazole buffer (pH 7.4) at a temperature of about 37° C. for about 30 minutes. omeprazole was used as a control. A solution containing 2 mM of magnesium chloride, 40 mM of imidazole buffer (pH 7.4), 10 mM of potassium chloride and 10 mM of ATP was added to the mixture. The resulting mixture was incubated at 37° C. for 15 minutes and the reaction was terminated by adding 1 ml of ice-cold 22% solution of trichloroacetic acid. Enzyme activity was calculated by measuring the separated inorganic phosphate by following the method of Fiske and Subbarow [J. Biol. Chem., 66, 375-440 (1925)].

The test system of another experiment is Gastric Secretion. Briefly: Inhibition of gastric secretion (Shay pylorus ligation). Type of experiment: in vivo, male Sprague-Dawley rats. The settings on record: rat, intraduodenal. How it is done:
Inhibition of gastric secretion was measured by following the procedure of Shay ligation (Gastroenterology, 1954, 26, 903). Thus, male Sprague-Dawleyrats weighing 180-200 g were starved for 24 hours and their pylorus were ligated. Then, the inventive compounds (Examples 1, 13 and 17) or omeprazole as a positive control was administered into duodenum. Four hours later, the stomach was removed, and the acidity and amount of gastric juice were measured. By comparing the measured values with the acidity and amount of the gastric juice of the stomach of the reference group to which no test compound was administered, the inhibition of gastric secretion was calculated.

The next experiment deals with Ethanol-Induced Lesions. Briefly: Inhibition of Ethanol-Induced Lesions. Format: in vivo, male Sprague-Dawley rats. The following applies: rat, oral, 30 minutes before absolute ethanol (5 ml/kg); read-out: Anti-ulcer activity (ED50), Ethanol. The method, then: Inhibition activity of the inventive compound on the ethanol-induced ulcer was measured by using male sprague-Dawley rats weighing 180-200 g. Thus, rats were starved for 24 hours, and the inventive compound (Examples 1 and 17) or omeprazole as a positive control was orally administered. Thirty minutes later, absolute ethanol (5 ml/kg was orally administered. 1.5 hours later, the stomach was removed, and the degree of the wound of the stomach was measured. By comparing the measured values with the degree of the lesion of the stomach the reference group to which no test compound was administered, the effective dose (ED50) of the test compounds which inhibit the lesion by 50% were calculated and are shown in Table 3.

The next experiment concerns Mepirizole-Induced Ulcer. Briefly: Inhibition of Mepirizole-Induced Ulcer (duodenum). The following applies: rat, oral, 30 minutes before mepirizole (250 mg/kg); read-out: Anti-ulcer activity (ED50), Mepirizole. Type of experiment: in vivo, male Sprague-Dawley rats. The method, then: Inhibition activity of the inventive compounds on the mepirizole-induced ulcers was measured by using male Spraque-Dawley rats weighing 200-230 g. Thus, rats were not starved, and the inventive compounds (Examples 1 and 17) or omeprazole as a positive control was orally administered. Thirty minutes later, mepirizole suspended in 1% CMC (250 mg/kg) was orally administered. […], the duodena were removed. The degree of the ulcer thereof was measured. By comparing the measured values with the degree of the ulcer of the duodena of the reference group to which no test compound was administered, the effective deses (ED50) of the test compounds which inhibit the ulcer by 50% were calculated and are shown in Table 3.

For experiment [1], the system named is Indomethacin-Induced Lesions. The experiment in a line: Inhibition of Indomethacin-Induced Lesions. Type of experiment: in vivo, male Sprague-Dawley rats. The following applies: rat, oral, before 35 mg/kg indomethacin s.c.; read-out: Anti-ulcer activity (ED50), Indomethacin. How it is done: Inhibition activities of the inventive compounds on the indome][…]-induced lesions was measured by using male Sprague-Dawley rats. Thus, rats were starved for 48 hours and prohibited from being supplied with water for 2 hours, and 35 mg/kg of indomethacin (Sigma Co.) as a causative of gastric lesions was subcutaneously administered. Before Indomethacine treatment, the inventive compounds (Examples 1 and 17) or omeprazole as a positive control was orally administered, and the inhibitions of lesions by the action of the test compounds were observed.

The test system of the next experiment is Stress-Induced Ulcer. The experiment in a line: Inhibition of Stress-Induced Ulcer (water immersion). Type of experiment: in vivo, male Sprague-Dawley rats. The following applies: rat, oral, 30 minutes prior to immersion in water; read-out: Anti-ulcer activity (ED50), Stress. How it is done:
Inhibition activity of the inventive compound on the stress-induced ulcer was evaluated by using male Sprague-Dawley rats. Thus, rats were starved for 24 hours prior to carrying out the experiment. Stress is an important factor for causing gastric lesions, and was applied to rats by immersing them in water. Thirty minutes prior to immersing rats into water, the inventive compounds (Examples 1 and 17) or omeprazole as a positive control was orally administered, and the inhibitions of ulcer by the action of the test compounds were observed.

Experiment [2] concerns Acetic Acid-Induced Ulcer. The experiment in a line: Inhibition of Acetic Acid-Induced Ulcer (healing). Type of experiment: in vivo, male Sprague-Dawley rats. The following applies: rat, oral, 30 mg/kg, for 10 days. How it is done: Inhibition activity of the inventive compound on-the acetic acid-induced ulcer was evaluated by using male Sprague-Dawley rats. Thus, rats were starved for 5 hours prior to carrying out the experiment.
20 Microliter of 30% acetic acid was injected into the submucosal layer of the stomach using a microsyringe to induce a circular ulcer on the stomach. Various doses of the inventive compounds (Examples 1 and 17) or omeprazole as a positive control were orally administered for 10 days, and the healing of ulcer by the action of the test compounds were observed. The percentages of the healing of the ulcer were calculated by comparing them with that of reference group.

A word on the IC50: it is the midpoint of a concentration-inhibition curve. As usually defined, the ED50 is the midpoint of the dose-response relation.

T1 sequence (P27112 2-1035 limits assumed): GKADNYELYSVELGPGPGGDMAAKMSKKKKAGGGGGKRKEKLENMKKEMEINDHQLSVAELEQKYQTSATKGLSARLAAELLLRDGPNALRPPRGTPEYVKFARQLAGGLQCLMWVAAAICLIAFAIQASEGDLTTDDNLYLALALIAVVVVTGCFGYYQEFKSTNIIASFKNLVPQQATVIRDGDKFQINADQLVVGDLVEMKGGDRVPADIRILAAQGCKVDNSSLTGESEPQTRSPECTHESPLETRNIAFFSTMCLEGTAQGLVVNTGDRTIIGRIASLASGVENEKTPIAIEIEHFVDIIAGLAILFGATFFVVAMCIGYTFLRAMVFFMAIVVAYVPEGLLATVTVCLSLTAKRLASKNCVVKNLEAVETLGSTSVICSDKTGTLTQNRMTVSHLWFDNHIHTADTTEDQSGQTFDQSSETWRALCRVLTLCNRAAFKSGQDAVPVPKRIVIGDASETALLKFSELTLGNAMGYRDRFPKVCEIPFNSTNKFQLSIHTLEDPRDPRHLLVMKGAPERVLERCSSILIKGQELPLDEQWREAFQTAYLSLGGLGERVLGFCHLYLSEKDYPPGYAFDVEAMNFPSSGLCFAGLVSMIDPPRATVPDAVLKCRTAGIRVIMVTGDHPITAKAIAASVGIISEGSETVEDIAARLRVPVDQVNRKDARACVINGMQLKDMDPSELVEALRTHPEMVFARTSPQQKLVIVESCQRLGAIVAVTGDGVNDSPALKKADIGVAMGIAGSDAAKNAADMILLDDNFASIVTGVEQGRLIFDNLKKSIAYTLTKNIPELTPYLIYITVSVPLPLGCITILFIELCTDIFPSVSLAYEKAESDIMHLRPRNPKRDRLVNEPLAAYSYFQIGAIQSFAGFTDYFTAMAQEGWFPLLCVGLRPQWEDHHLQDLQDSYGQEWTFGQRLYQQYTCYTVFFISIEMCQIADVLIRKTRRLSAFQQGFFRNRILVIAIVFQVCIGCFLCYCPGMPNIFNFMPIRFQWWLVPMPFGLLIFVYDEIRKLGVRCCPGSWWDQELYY
T1 sequence (P18597 whole entry partner): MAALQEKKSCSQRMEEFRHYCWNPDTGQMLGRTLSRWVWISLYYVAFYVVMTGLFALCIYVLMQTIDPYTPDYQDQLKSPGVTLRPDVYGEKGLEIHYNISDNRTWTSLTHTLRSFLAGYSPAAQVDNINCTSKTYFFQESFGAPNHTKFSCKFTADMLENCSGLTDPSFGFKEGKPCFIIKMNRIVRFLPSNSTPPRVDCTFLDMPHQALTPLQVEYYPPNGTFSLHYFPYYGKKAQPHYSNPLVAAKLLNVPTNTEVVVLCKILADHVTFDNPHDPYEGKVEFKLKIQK

On to `NC(N)=Nc1nc2c(s1)-c1nc(N)sc1CC2` [Example 18], for which the IC50 on H^+ /K^+ ATPase was 100 µM.

With `Nc1nc2c(s1)CCc1nc3ccccn3c1-2` [Example 17, 2-amino-4,5-dihydropyrido[1,2-a]thiazolo [5,4-g]benzimidazole], the IC50 at H^+ /K^+ ATPase was 49 µM. Besides, the ED50 in the experiment with Gastric Secretion (4 hours after pylorus ligation, read-out: Gastric juice Secretion Inhibition (ED50)) turned out to be 15.4 mg/kg; with Ethanol-Induced Lesions it was 2.91 mg/kg; in the experiment on Mepirizole-Induced Ulcer, 18.7 mg/kg; in experiment [1] it was 4.68 mg/kg; in the experiment on Stress-Induced Ulcer, 17.6 mg/kg. Further, in experiment [2], the “Anti-ulcer activity, Acetic acid: Percentage of healing” value amounted to 31.59%.

Take `COc1ccc2[nH]c([S+]([O-])Cc3ncc(C)c(OC)c3C)nc2c1` (stereo not shown) [Omeprazole, reference compound]: the ED50 with Ethanol-Induced Lesions was determined as 17.1 mg/kg; in the experiment on Mepirizole-Induced Ulcer it was 2.8 mg/kg; in experiment [1], 1.2 mg/kg; in the experiment with Stress-Induced Ulcer, 4.4 mg/kg. Besides, in experiment [2], the “Anti-ulcer activity, Acetic acid: Percentage of healing” value was 27.1%.

With `CNc1nc2c(s1)CCc1c-2sc2nc(-c3ccccc3)cn12` [Example 2], on H^+ /K^+ ATPase, the IC50 came out at 21.6 µM.

With `Br.Br.Nc1nc2c(s1)CCc1c-2sc2nc3ccccc3n12` [Example 13, 2-amino-4,5-dihydrobenzimidazo[2,1-b]thiazolo[5,4-g]benzothiazole dihydrobromide], the IC50 at H^+ /K^+ ATPase amounted to 200 µM. Moreover, the “Gastric juice Secretion Inhibition (percent)” value in the experiment on Gastric Secretion (25 mg/kg, 4 hours) is recorded as 34.0%.
